From ChEMBL document CHEMBL3272278, “Electronic factors in the structure-activity relationship of some 1,4-benzodiazepin-2-ones” (1977) come the findings set out here.

Calls of active or inactive are those of the source. The rule behind the calls is not given here.

The term ED50 denotes the midpoint of the dose-response relation.

For test [1], the species on record is Mus musculus. Kind of test: Muscle relaxant activity in mouse. It counts as functional.
The species entered for test [2] is Mus musculus. Kind of test: Anticonvulsion activity in mouse assessed as protection against pentylenetetrazole-induced convulsion. Format: functional.
The species named for test [3] is Mus musculus. Kind of test: Taming activity in mouse assessed as suppression of electrical current-induced aggressive behavior by foot-shock test. Format: functional.
For test [4], the species on record is Felis catus. Kind of test: Muscle relaxant activity in cat suspended by scruff of neck assessed as relaxation of body and hind legs. It counts as functional.
The species entered for test [5] is Mus musculus. The test can be described thus: Sedative activity in mouse. Format: functional.
Test [6] is filed under the species Felis catus. Kind of test: Sedative activity in cat. Format: functional, organism-based.

As to `O=C1CN=C(c2ccc(F)cc2)c2cc(Cl)ccc2N1`, the result in test [1], in test [2], in test [3], in test [4], in test [5] and in test [6] was inactive.
For the molecule `O=C1CN=C(c2ccccc2)c2ccccc2N1` [RO-052921], the “log(1/ED50)” value in test [1] and in test [5] was 0.1968 throughout. The outcome in test [2], in test [4] and in test [6] was inactive. Moreover, the “log(1/MED)” value in test [3] was determined as 0.3729.
Regarding `O=C1CN=C(c2ccccc2Cl)c2cc([N+](=O)[O-])ccc2N1` [CLONAZEPAM], the outcome in test [1] and in test [5] was inactive. Further, in test [2], the “log(1/ED50)” value is reported as 3.2948. The results for the “log(1/MED)” value in test [3] and in test [4] were 1.1979 and 3.8, respectively.
As to `CN1C(=O)CN=C(c2ccccc2Cl)c2cc(Cl)ccc21`, the “log(1/ED50)” value in test [1] is 0.9016; in test [2] it was 2.8804; in test [5], 0.9016. Also, the “log(1/MED)” value is reported as 1.5037 in test [3] and 3.5037 in test [4].
On to `O=C1CN=C(c2ccccc2Cl)c2cc(Cl)ccc2N1` [DELORAZEPAM], for which the “log(1/ED50)” value in test [1] is 0.4842; in test [2], 2.8821; in test [5], 0.4842. Besides, the “log(1/MED)” value amounted to 0.8821 in test [3] and 3.4842 in test [4]. Moreover, the ED50 in test [3] (Mus musculus) was determined as 2 mg/kg.
Consider `O=C1CN=C(c2cccc(F)c2)c2cc(Cl)ccc2N1`, for which the entries for the “log(1/ED50)” value in test [1], in test [2] and in test [5] were 0.159, 1.8368 and 0.159, respectively. Further, the “log(1/MED)” value came to 0.858 in test [3] and 2.159 in test [4].
Turning to `CN(C)c1ccc2c(c1)C(c1ccccc1)=NCC(=O)N2C`, the “log(1/ED50)” value in test [1] was found to be 0.2908; in test [2], 1.6887; in test [5], 0.2908. In addition, the “log(1/MED)” value in test [3] is on record as 0.8648; in test [4], 2.4669.
`N#Cc1ccc2c(c1)C(c1ccccc1F)=NCC(=O)N2`: the entries for the “log(1/ED50)” value in test [1], in test [2] and in test [5] were 0.5705, 2.6327 and 0.5705, respectively. In addition, the “log(1/MED)” value turned out to be 1.7466 in test [3] and 3.7466 in test [4].
With `O=C1CN=C(c2ccccc2)c2cc(Cl)cc(Cl)c2N1`, the results for the “log(1/ED50)” value in test [1], in test [2] and in test [5] were 0.3081, 1.5651 and 0.3081, respectively. The outcome in test [3] was inactive. In addition, the “log(1/MED)” value in test [4] is given as 2.1831.
As for `CN(C)c1ccc2c(c1)C(c1ccccc1)=NCC(=O)N2`, the result in test [1], in test [3] and in test [5] was inactive. Further, in test [2], the “log(1/ED50)” value is listed as 0.8224. Moreover, the “log(1/MED)” value in test [4] is listed as 1.4456.
With `O=C1CN=C(c2ccc(Cl)cc2Cl)c2cc(Cl)ccc2N1`, the outcome in test [1], in test [3], in test [4], in test [5] and in test [6] was inactive. The “log(1/ED50)” value in test [2] was -0.3724.
Take `CN1C(=O)CN=C(c2ccccc2F)c2cc(Cl)ccc21` [FLUDIAZEPAM]: the “log(1/ED50)” value in test [1] is given as 1.4807; in test [2], 2.8766; in test [5], 1.4807. Moreover, the “log(1/MED)” value is 1.7817 in test [3] and 3.7817 in test [4].
In the case of `O=C1CN=C(c2ccccc2)c2cc(F)ccc2N1` [RO-053061], the “log(1/ED50)” value in test [1] and in test [5] was 0.2287 in each case. Further, the result in test [2] was inactive. For the same molecule, the figures for the “log(1/MED)” value in test [3] and in test [4] were 0.4048 and 1.8028, respectively.
Regarding `CN1C(=O)CN=C(c2ccccc2)c2cc(Cl)ccc21` [DIAZEPAM], the “log(1/ED50)” value is reported as 0.9769 in test [1], 2.3079 in test [2] and 0.9769 in test [5]. The “log(1/MED)” value in test [3] came to 1.454; in test [4], 3.153.
Take `O=C1CN=C(c2ccccc2F)c2cc(Cl)ccc2N1` [N-DESALKYL-2-OXOQUAZEPAM]: the figures for the “log(1/ED50)” value in test [1], in test [2] and in test [5] were 0.858, 3.4601 and 0.858, respectively. For the same molecule, the “log(1/MED)” value in test [3] was found to be 1.7611; in test [4], 3.7611.
As to `CN1C(=O)CN=C(c2ccccc2)c2cc([N+](=O)[O-])ccc21` [NIMETAZEPAM], the “log(1/ED50)” value was 1.4698 in test [1], 2.6917 in test [2] and 1.4698 in test [5]. Besides, the “log(1/MED)” value in test [3] came out at 2.0719; in test [4], 3.4698.
Regarding `COc1ccccc1C1=NCC(=O)Nc2ccc(Cl)cc21`, the “log(1/ED50)” value was found to be 0.0007 in test [1], 1.6027 in test [2] and 0.0007 in test [5]. Further, the figures for the “log(1/MED)” value in test [3] and in test [4] were 0.4778 and 2.4778, respectively.
